From US7384558B2, “Compositions capable of inhibiting reactive oxygen and carbonyl species” (Baxter International Inc., priority 2004, dated 2008)
Values joined by “and” are separate entries in the source; they are usually repeats but may differ in a detail not shown here. Identical values can stand only once.

Experiment: TEAC (Trolox equivalent antioxidant activity) ABTS decolorization assay
Settings: for antioxidant activity as compared to the Vitamin E standard compound (Trolox): Table 1, statement in words; for TEAC (Ratio % Inhibition): ratio of % inhibition of antioxidant compound / % inhibition of Trolox; for TEAC (Slope): relative to Trolox as standard, slope of % inhibition vs concentration
Experimental: Tests were conducted to evaluate the antioxidant and carbonyl trapping properties of therapeutic compositions according to various embodiments of the present invention. A Trolox equivalent antioxidant activity (TEAC) test was conducted to assess the antioxidant properties as described below in greater detail.
The TEAC antioxidant activity was measured by the ABTS [2,2′-Azinobis-(3-ethylbenzothiazoline-6-sulphonic acid)] decolorization assay. In this method, a stable radical (ABTS radical cation) is formed, and the adsorption maxima is determined. See, for example, R. Ree, N. Pellegrini, A. Proteggente, A. Pannala, M. Yang and C. Rice-Evans, Antioxidant activity applying an improved ABTS radical cation decolorization assay, Free Rad. Biol. & Med., 26 (9/10), 1231-1237 (1999). The addition of antioxidant to the pre-formed radical cation reduces it to an extent and on a time-scale depending on the antioxidant activity, the concentration of the antioxidant and the duration of the reaction. Thus, the extent of reduction (decolorization) as percentage inhibition of the ABTS radical cation is determined as a function of concentration and time and calculated relative to the reactivity of Trolox as a standard under the same conditions. The TEAC value is calculated by the ratio of % of Inhibition of antioxidant compound/% Inhibition of Trolox.

Row | Molecule | antioxidant activity as compared to the Vitamin E standard compound (Trolox) | TEAC (Ratio % Inhibition) | TEAC (Slope)
1 | N-[2-(6-Hydroxy-tetramethylchroman-2-yl)ethyl]-N′-(penicillamyl)-piperazine [VE-PEN-1] | enhanced antioxidant activity | 1.6-2.1 | 1.3(r2 = 0.9996)
2 | Cc1c(C)c2c(c(C)c1O)CCC(C)(CCON)O2 (centres unmarked) [VE-ONH2-1, 2-(6-Hydroxy-2,5,7,8-tetramethylchroman-2-yl)-1-(aminooxy)ethane] |  | 0.9-1.0 and 0.5-0.8 | 0.9(r2 = 0.9948) and 0.8(r2 = 0.9997)
3 | Cc1c(C)c2c(c(C)c1O)CCC(C)(CCN1CCN(C(=O)[C@@H](N)CS)CC1)O2 (some centres unmarked) [VE-CYS-1, N-[2-(6-Hydroxy-tetramethylchroman-2-yl)ethyl]-N′-(cysteinyl)-piperazine] | enhanced antioxidant activity | 1.4-1.5 | 1.4(r2 = 0.9997)
